In patent publication US6525001B1, “Substituted pyrimidine and pyridine herbicides” (Mid-American Commercialization Corporation, priority 1997, dated 2003):

How the values were obtained:
Format in all cases: in vivo
Design in all cases: key: 0 is no effect; 10 is complete control
[1] = test system: blackgrass (Alopecurus myosuroides); assay: Test B pre-/postemergence
Summary of the method: (§1)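 Scored visually 0 (none) to 10 (complete control) against untreated plants after twelve to sixteen greenhouse days. Test chemicals, formulated in surfactant-containing non-phytotoxic solvent, applied to soil after planting and, separately, onto 1- to 4-leaf (2–18 cm) plants.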

[2] = test system: cocklebur (Xanthium strumarium); assay: Test B pre-/postemergence
Summary of the method: as §1

corn (Zea mays) = assay: Test B pre-/postemergence
Summary of the method: as §1

[3] = test system: crabgrass (Digitaria sanguinalis); assay: Test B pre-/postemergence
Summary of the method: as §1

[4] = test system: pigweed (Amaranthus retroflexus); assay: Test B pre-/postemergence
Summary of the method: as §1

[5] = test system: purple nutsedge (Cyperus rotundus); assay: Test B pre-/postemergence
Summary of the method: as §1

rape (Brassica napus) = assay: Test B pre-/postemergence
Summary of the method: as §1

soybean (Glycine max) = assay: Test B pre-/postemergence
Summary of the method: as §1

[6] = test system: sugar beet (Beta vulgaris); assay: Test B pre-/postemergence
Summary of the method: as §1

[7] = test system: velvetleaf (Abutilon theophrasti); assay: Test B pre-/postemergence
Summary of the method: as §1

[8] = test system: wheat (Triticum aestivum); assay: Test B pre-/postemergence
Summary of the method: as §1

[9] = test system: bamyardgrass (Echinochloa crus-galli); assay: Test B flood test; conditions: for Plant response rating, Barnyardgrass: Postemergence (flood test species)
Summary of the method: (§2)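 Flood test on plants grown to the 2-leaf stage; treated plants kept in greenhouse twelve to sixteen days, then visually rated against controls on a 0 (no effect) to 10 (complete control) scale.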

[10] = test system: duck salad (Heteranthera limosa); assay: Test B flood test; conditions: for Plant response rating, Ducksalad: Postemergence (flood test species)
Summary of the method: as §2

rice (Oryza sativa) = assay: Test B flood test; conditions: for Plant response rating, Rice: Postemergence (flood test species)
Summary of the method: as §2

[11] = test system: smallflower flatsedge (Cyperus difformis); assay: Test B flood test; conditions: for Plant response rating, S. Flatsedge: Postemergence (flood test species)
Summary of the method: as §2

[12] = Preemergence, Rate 62 g/ha, scale of 0 to 10
[13] = Rate 62 g/ha, Postemergence (flood test)
[14] = Rate 125 g/ha, Postemergence section (flood test species)

## Cc1cnc(-n2ccc(C(F)(F)F)n2)nc1C(=O)c1ccc(C(F)(F)F)cc1 [Compound 65]
[1]; [12]
  Plant response rating, Blackgrass: 0
[1]; Rate 62 g/ha, Postemergence
  Blackgrass plant response rating: 0
[1]; Rate 125 g/ha, Postemergence
  Blackgrass plant response rating: 0
[1]; Rate 125 g/ha, Preemergence
  Plant response rating, Blackgrass: 0
[1]; Rate 250 g/ha, Postemergence
  Plant response rating, Blackgrass: 0
[1]; Rate 250 g/ha, Preemergence
  Plant response rating, Blackgrass: 0
[1]; Rate 500 g/ha, Postemergence
  Plant response rating, Blackgrass: 0
[1]; Rate 500 g/ha, Preemergence
  Plant response rating, Blackgrass: 0
[2]; [12]
  Plant response rating, Cocklebur: 0
[2]; Rate 62 g/ha, Postemergence
  Cocklebur plant response rating: 1
[2]; Rate 125 g/ha, Postemergence
  Cocklebur plant response rating: 1
[2]; Rate 125 g/ha, Preemergence
  Plant response rating, Cocklebur: 0
[2]; Rate 250 g/ha, Postemergence
  Plant response rating, Cocklebur: 1
[2]; Rate 250 g/ha, Preemergence
  Plant response rating, Cocklebur: 0
[2]; Rate 500 g/ha, Postemergence
  Plant response rating, Cocklebur: 2
[2]; Rate 500 g/ha, Preemergence
  Plant response rating, Cocklebur: 0
Corn (Zea mays); [12]
  Plant response rating, Corn: 0
Corn (Zea mays); Rate 62 g/ha, Postemergence
  Corn plant response rating: 1
Corn (Zea mays); Rate 125 g/ha, Postemergence
  Corn plant response rating: 1
Corn (Zea mays); Rate 125 g/ha, Preemergence
  Plant response rating, Corn: 0
Corn (Zea mays); Rate 250 g/ha, Postemergence
  Plant response rating, Corn: 1
Corn (Zea mays); Rate 250 g/ha, Preemergence
  Plant response rating, Corn: 0
Corn (Zea mays); Rate 500 g/ha, Postemergence
  Plant response rating, Corn: 1
Corn (Zea mays); Rate 500 g/ha, Preemergence
  Plant response rating, Corn: 0
[3]; [12]
  Plant response rating, Crabgrass: 0
[3]; Rate 62 g/ha, Postemergence
  Crabgrass plant response rating: 1
[3]; Rate 125 g/ha, Postemergence
  Crabgrass plant response rating: 1
[3]; Rate 125 g/ha, Preemergence
  Plant response rating, Crabgrass: 0
[3]; Rate 250 g/ha, Postemergence
  Plant response rating, Crabgrass: 1
[3]; Rate 250 g/ha, Preemergence
  Plant response rating, Crabgrass: 0
[3]; Rate 500 g/ha, Postemergence
  Plant response rating, Crabgrass: 1
[3]; Rate 500 g/ha, Preemergence
  Plant response rating, Crabgrass: 0
[4]; [12]
  Plant response rating, Redroot pigweed: 0
[4]; Rate 62 g/ha, Postemergence
  Redroot pigweed plant response rating: 2
[4]; Rate 125 g/ha, Postemergence
  Redroot pigweed plant response rating: 3
[4]; Rate 125 g/ha, Preemergence
  Plant response rating, Redroot pigweed: 0
[4]; Rate 250 g/ha, Postemergence
  Plant response rating, Redroot pigweed: 6
[4]; Rate 250 g/ha, Preemergence
  Plant response rating, Redroot pigweed: 0
[4]; Rate 500 g/ha, Postemergence
  Plant response rating, Redroot pigweed: 7
[4]; Rate 500 g/ha, Preemergence
  Plant response rating, Redroot pigweed: 0
[5]; [12]
  Plant response rating, Nutsedge: 0
[5]; Rate 62 g/ha, Postemergence
  Nutsedge plant response rating: 0
[5]; Rate 125 g/ha, Postemergence
  Nutsedge plant response rating: 0
[5]; Rate 125 g/ha, Preemergence
  Plant response rating, Nutsedge: 0
[5]; Rate 250 g/ha, Postemergence
  Plant response rating, Nutsedge: 0
[5]; Rate 250 g/ha, Preemergence
  Plant response rating, Nutsedge: 0
[5]; Rate 500 g/ha, Preemergence
  Plant response rating, Nutsedge: 0
Rape (Brassica napus); [12]
  Plant response rating, Rape: 0
Rape (Brassica napus); Rate 62 g/ha, Postemergence
  Rape plant response rating: 1
Rape (Brassica napus); Rate 125 g/ha, Postemergence
  Rape plant response rating: 1
Rape (Brassica napus); Rate 125 g/ha, Preemergence
  Plant response rating, Rape: 0
Rape (Brassica napus); Rate 250 g/ha, Postemergence
  Plant response rating, Rape: 2
Rape (Brassica napus); Rate 250 g/ha, Preemergence
  Plant response rating, Rape: 0
Rape (Brassica napus); Rate 500 g/ha, Postemergence
  Plant response rating, Rape: 2
Rape (Brassica napus); Rate 500 g/ha, Preemergence
  Plant response rating, Rape: 0
Soybean (Glycine max); [12]
  Plant response rating, Soybean: 0
Soybean (Glycine max); Rate 62 g/ha, Postemergence
  Soybean plant response rating: 1
Soybean (Glycine max); Rate 125 g/ha, Postemergence
  Soybean plant response rating: 2
Soybean (Glycine max); Rate 125 g/ha, Preemergence
  Plant response rating, Soybean: 0
Soybean (Glycine max); Rate 250 g/ha, Postemergence
  Plant response rating, Soybean: 2
Soybean (Glycine max); Rate 250 g/ha, Preemergence
  Plant response rating, Soybean: 0
Soybean (Glycine max); Rate 500 g/ha, Postemergence
  Plant response rating, Soybean: 2
Soybean (Glycine max); Rate 500 g/ha, Preemergence
  Plant response rating, Soybean: 0
[6]; [12]
  Plant response rating, Sugarbeets: 0
[6]; Rate 62 g/ha, Postemergence
  Sugarbeets plant response rating: 7
[6]; Rate 125 g/ha, Postemergence
  Sugarbeets plant response rating: 7
[6]; Rate 125 g/ha, Preemergence
  Plant response rating, Sugarbeets: 0
[6]; Rate 250 g/ha, Postemergence
  Plant response rating, Sugarbeets: 8
[6]; Rate 250 g/ha, Preemergence
  Plant response rating, Sugarbeets: 0
[6]; Rate 500 g/ha, Postemergence
  Plant response rating, Sugarbeets: 8
[6]; Rate 500 g/ha, Preemergence
  Plant response rating, Sugarbeets: 0
[7]; [12]
  Plant response rating, Velvetleaf: 0
[7]; Rate 62 g/ha, Postemergence
  Velvetleaf plant response rating: 1
[7]; Rate 125 g/ha, Postemergence
  Velvetleaf plant response rating: 1
[7]; Rate 125 g/ha, Preemergence
  Plant response rating, Velvetleaf: 0
[7]; Rate 250 g/ha, Postemergence
  Plant response rating, Velvetleaf: 2
[7]; Rate 250 g/ha, Preemergence
  Plant response rating, Velvetleaf: 0
[7]; Rate 500 g/ha, Postemergence
  Plant response rating, Velvetleaf: 2
[7]; Rate 500 g/ha, Preemergence
  Plant response rating, Velvetleaf: 1
[8]; [12]
  Plant response rating, Wheat: 0
[8]; Rate 62 g/ha, Postemergence
  Wheat plant response rating: 1
[8]; Rate 125 g/ha, Postemergence
  Wheat plant response rating: 1
[8]; Rate 125 g/ha, Preemergence
  Plant response rating, Wheat: 0
[8]; Rate 250 g/ha, Postemergence
  Plant response rating, Wheat: 2
[8]; Rate 250 g/ha, Preemergence
  Plant response rating, Wheat: 0
[8]; Rate 500 g/ha, Postemergence
  Plant response rating, Wheat: 2
[8]; Rate 500 g/ha, Preemergence
  Plant response rating, Wheat: 0
[9]; [13]
  Barnyardgrass plant response rating: 0
[9]; [14]
  Barnyardgrass plant response rating: 0
[9]; Rate 250 g/ha
  Plant response rating, Barnyardgrass: 0
[9]; Rate 500 g/ha
  Plant response rating, Barnyardgrass: 0
[10]; [13]
  Ducksalad plant response rating: 0
[10]; [14]
  Ducksalad plant response rating: 0
[10]; Rate 250 g/ha
  Plant response rating, Ducksalad: 0
[10]; Rate 500 g/ha
  Plant response rating, Ducksalad: 0
Rice (Oryza sativa); [13]
  Rice plant response rating: 0
Rice (Oryza sativa); [14]
  Rice plant response rating: 0
Rice (Oryza sativa); Rate 250 g/ha
  Plant response rating, Rice: 0
Rice (Oryza sativa); Rate 500 g/ha
  Plant response rating, Rice: 0
[11]; [13]
  S. Flatsedge plant response rating: 0
[11]; [14]
  S. Flatsedge plant response rating: 0
[11]; Rate 250 g/ha
  Plant response rating, S. Flatsedge: 0
[11]; Rate 500 g/ha
  Plant response rating, S. Flatsedge: 0
